Laboratory results published in patent US7371555B2, “Polypeptides having α-H-α-amino acid amide racemase activity and nucleic acids encoding the same” (DSM IP Assets B.V., priority 2002, dated 2008).
Residues, ends and D or L forms follow the SMILES beside them.

How the values were obtained:
[1] = system: partially purified α-H-α-amino acid amide racemase from O. anthropi IA; experiment: Substrate specificity of the partially purified racemase (Example 8); format: biochemical, Ochrobactrum anthropi IA; parameters: tested at 75 mM; settings: relative to the activity towards L-leucine amide; pH 8.0, 37° C.
Protocol: The substrate specificity of the O. anthropi IA α-H-α-amino acid amide racemase was determined using the partially purified enzyme preparation obtained by the protocol described above. Reaction mixtures of 1 ml total volume were prepared by mixing 772 μl of 66.6 mM HEPES-NaOH, pH 8.0, 10 μl of 0.1 M dithiothreitol, 18 μl of a solution containing 20 mg/ml BSA and 1 mM pyridoxal-5-phosphate, and 100 μl of a 0.75 M substrate solution, pH 8.0. After equilibration for 5 minutes at 37° C., the reactions were started by the addition of 100 μl of the enzyme solution. Reaction mixtures were incubated at 37° C. without shaking. After regular time intervals, samples of 50 μl were taken and transferred into vials containing 950 μl of 1 M H3PO4 to stop the reaction. After sufficient dilution of the samples in 0.4 M borate buffer pH 9.4, the mixtures obtained were analyzed using HPLC to determine the exact concentrations of two amino acid amide enantiomers according to the method of Example 7.
Initial activity for the different substrates tested was calculated from the linear parts of the progress curves, in which the amount of the amino acid amide enantiomer formed (so with a stereochemistry opposite to the substrate molecule) was plotted against the reaction time.

[2] = system: α-H-α-amino acid amide racemase from Ochrobactrum anthropi IA; experiment: Substrate specificity, CFE from E. coli TOP10/pKEC_AZAR_3 (Example 7); format: biochemical; settings: relative to the activity towards D-leucine amide; 75 mM substrate, 20 mM EDTA, pH 8.0, 37° C.
Protocol: Two pre-cultures of E. coli TOP10/pKEC_AZAR—3 (see Example 4) were prepared by inoculation of 2 erlenmeyer flasks with 100 ml of 2*TY medium (10 g/l Yeast extract, 16 g/l Tryptone, 5 g/l NaCl) containing 50 mg/l of kanamycin with 10 μl of a glycerol stock per flask. After overnight cultivation at 28° C. and 200 rpm, the pre-cultures were pooled, and subsequently used to inoculate 2 erlenmeyer flasks each containing 1 l of the same medium. Also these flasks were cultivated at 28° C. and 200 rpm for 16-18 h. Cells were harvested by centrifugation (15 min. at 6,200×g, 4° C.), washed with 20 mM HEPES-NaOH, pH 7.5, pooled, weighed, and resuspended in a solution containing 20 mM HEPES-NaOH, pH 7.5, 20 μM pyridoxal-5-phosphate, and 1.3 mM of dithiothreitol in a 1:3 ratio of wet weight cells to solution. Then, cells were disintegrated by 10 min. sonification with a Soniprep 150 of MSE operated at maximum amplitude using time intervals of 10 sec. (i.e., 10 sec. sonification, 10 sec. cooling) and cooling in ice/acetone. Particles were removed by centrifugation, after which sucrose was added to the cell free extract to a final concentration of 0.25 M. The resulting cell free extract (CFE) was stored in aliquots at −20° C. E. coli TOP10/pBAD/Myc-HisC (Invitrogen) cells were treated in exactly the same way and served as negative control.
The substrate specificity of the α-H-α-amino acid racemase from O. anthropi IA was determined by measuring the racemase activity of the above-mentioned CFE towards a number of enantiomerically pure amino acid amides. Each reaction mixture of 10 ml (including the CFE) contained 50 mM HEPES-NaOH, pH 8.0, 20 μM pyridoxal-5-phosphate, 0.4 mg/ml BSA, 1 mM dithiothreitol, 20 mM EDTA and 75 mM of one of the amino acid amides tested. Reactions were started by the addition of 1 ml of the thawed CFE of E. coli TOP10/pKEC_AZAR—3 or E. coli TOP10/pBAD/Myc-HisC (blank) and were incubated at 37° C. At regular time intervals samples of 1 ml were taken and transferred to vials containing 1 ml of 1M H3PO4 to stop the reaction. After sufficient dilution of the samples in 0.4 M borate buffer pH 9.4, the mixtures obtained were analyzed using HPLC to determine the exact concentrations of the two amino acid and two amino acid amide enantiomers according to the following method.
The initial activity for the different substrates tested was calculated from the linear parts of the progress curves, in which the conversion was plotted against the reaction time. Use of the linear part of the progress curves secured that only samples taken at time points at which the substrate concentration was still sufficiently high, were used for the calculations. The conversion was calculated by dividing the amount of amino acid and amino acid amide formed via the racemase reaction (so with the opposite stereochemistry compared to the substrate molecule) by the total amount of two amino acid enantiomers and the two amino acid amide enantiomers.

[3] = system: α-H-α-amino acid amide racemase from Arthrobacter nicotianae NCIMB 41126; experiment: Substrate specificity, CFE from E. coli DH10B/pAn(1)PLV36D06 (Example 9); format: biochemical; settings: relative to the activity towards D-leucine amide; 75 mM substrate, pH 8.0, 37° C.
Protocol: Preparation of the CFE of E. coli DH10B/pAn(1)PLV36D06 was performed as described in Example 7 for E. coli TOP10/pKEC_AZAR—3
Before applying the CFE from E. coli DH10B/pAn(1)PLV36D06 in the reactions with different enantiomerically pure α-H-α-amino acid amides to determine the substrate specificity of the A. nicotianae α-H-α-amino acid amide racemase, the E. coli amidases/aminopeptidases in this CFE were inhibited by a pre-treatment with an inhibitor cocktail. One tablet of Complete Mini Protease Inhibitor Cocktail (Roche Applied Science, Mannheim, Germany) was dissolved in 9 ml of the CFE followed by an incubation of 1 hour at room temperature. Next, reaction mixtures of 10 ml each (including the CFE) were prepared containing 50 mM HEPES-NaOH, pH 8.0, 20 μM pyridoxal-5-phosphate, 0.4 mg/ml BSA, 1 mM dithiothreitol and 75 mM of one of the amino acid amides tested. Reactions were started by the addition of 1 ml of the pre-treated CFE of E. coli DH10B/pAn(1)PLV36D06 or E. coli TOP10/pBAD/Myc-HisC (blank) and were incubated at 37° C. At regular time intervals samples of 1 ml were taken and transferred to vials containing 1 ml of 1M H3PO4 to stop the reaction. After sufficient dilution of the samples in 0.4 M borate buffer pH 9.4, the mixtures obtained were analyzed using HPLC to determine the exact concentrations of the two amino acid and two amino acid amide enantiomers according to the method of Example 7.

[4] = system: E. coli clones with plasmid encoded A. nicotianae NCIMB 41126 α-H-α-amino acid amide racemase activity; experiment: Confirmation of potential positive clones of the A. nicotianae NCIMB 41126 gene library; format: cell-based, Arthrobacter nicotianae NCIMB 41126; settings: 70 mM substrate, 10 μM pyridoxal-5-phosphate, 20 h at 30° C.
Protocol: Of all 32 potential positive clones identified in the screening, material from the masterplates was used to inoculate 3 ml of liquid screening medium containing 50 mg/l kanamycin. After growth for 2 days at 30° C., cells were collected by centrifuging 2 ml of these cell cultures. Then the cell pellets were washed four times in 25 mM Tris-HCl buffer, pH 7.5. Subsequently, the cell pellets were resuspended in 100 μl substrate solution containing 70 mM of D-phenylalanine amide, or D-leucine amide, or D-valine amide in 50 mM Tris-HCl, pH 7.5 and 1 mM MnCl2. After incubation for 20 h at 30° C., the reactions were stopped by the addition of 100 μl of 0.15 M HCl, after which the reaction mixtures were analyzed by the HPLC method described in Example 1.
Confirmation of both potential positive clones was done according to the protocol given in Example 3, with the exception that all 3 substrate solutions used contained 10 μM of pyridoxal-5-phosphate.

[5] = system: lyophilized O. anthropi IA cells; experiment: α-H-α-amino acid amide racemase activity of lyophilized O. anthropi IA cells; format: biochemical, Ochrobactrum anthropi IA; settings: approximately 72 hours at 40° C., 10 times diluted reaction mixture
Protocol: O. anthropi IA cells were cultivated in Medium A containing DL-α-amino-ε-caprolactam (2 g/l) as sole nitrogen source. After incubation at 28° C. and 200 rpm for three days (OD620 nm=4.7), cells were harvested by centrifugation, washed in 20 mM HEPES-NaOH buffer of pH 7.7 and lyophilized.
The assay mixture consisted of 10 mM HEPES-NaOH buffer (pH 7.7) containing toluene (2,5 v/v %), pyridoxal-5-phosphate (20 μM), D- or L-leucine amide (2.5 m %) and in some cases EDTA (20 mM). Per assay 150 mg of lyophilized cells were used. Chemical blanks (with the assay mixture without the O. anthropi IA cells) were used as a negative control. All reaction mixtures (including the blanks) were incubated for approximately 72 hours at 40° C. before the reaction was stopped by the addition of 9 volumes of 1 M H3PO4. Finally, the reaction mixtures were analyzed by HPLC to determine the concentrations of D- and L-leucine amide and of D- and L-leucine. o-Phthaldehyde in combination with D-3-mercapto-2-methylpropionic acid was used in this HPLC method as a chiral reagent for the enantioseparation of these amino compounds (Duchateau, et al., J. Chromatogr. (1992) 623:237-245).
In a number of reactions EDTA was added to inhibit L- and/or D-specific amidase(s) present in the O. anthropi IA cells.
Without EDTA, amidases convert the substrate and/or product α-H-α-amino acid amides into α-H-α-amino acids thereby preventing direct detection of the other α-H-α-amino acid amide enantiomer as racemization product. […] Formation of L-leucine from D-leucine amide could not be detected in the chemical blank.

[6] = target: T1, α-amino-ε-caprolactam racemase from Achromobacter obae (Achromobacter obae, UniProt Q7M181); settings: even when an excess amount of enzyme was used; cited from earlier work
T1 sequence (Q7M181 1-436): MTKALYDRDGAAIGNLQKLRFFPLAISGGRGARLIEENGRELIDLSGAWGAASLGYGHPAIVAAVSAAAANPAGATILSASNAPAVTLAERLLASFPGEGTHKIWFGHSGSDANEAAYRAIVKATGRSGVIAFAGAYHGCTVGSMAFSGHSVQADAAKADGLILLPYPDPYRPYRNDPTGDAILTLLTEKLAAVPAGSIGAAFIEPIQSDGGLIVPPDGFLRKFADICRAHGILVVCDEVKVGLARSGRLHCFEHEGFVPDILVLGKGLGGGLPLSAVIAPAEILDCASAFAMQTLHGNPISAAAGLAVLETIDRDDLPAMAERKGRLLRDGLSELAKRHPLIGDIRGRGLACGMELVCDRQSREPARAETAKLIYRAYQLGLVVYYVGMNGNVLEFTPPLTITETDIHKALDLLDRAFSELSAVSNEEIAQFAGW

NC(=O)[C@H](N)CCCC1OCCO1 [D-2-amino-5-[1,3]dioxolan-2-yl-pentanoicacid amide]
Rel. initial activity [1]: 9.1%

C[C@@H](N)C(N)=O [D-alanine amide]
Rel. initial activity [2]: 85%

CCC[C@@H](N)C(N)=O [D-norvaline amide]
Rel. initial activity [1]: 341% | Rel. initial activity [3]: 107% | Rel. initial activity [2]: 94%

NC(=O)[C@H](N)c1ccccc1 [D-phenylglycineamide]
Rel. initial activity [1]: 9.1%

CC(C)[C@@H](N)C(N)=O [D-valine amide]
Rel. initial activity [3]: 45% | conversion of D-amide into L-acid [4]: significantly converted

CC[C@H](N)C(N)=O [L-2-aminobutyric acid amide]
Rel. initial activity [1]: 641% | Rel. initial activity [3]: 76% | Rel. initial activity [2]: 203%

C[C@H](N)C(N)=O [L-alanine amide]
Rel. initial activity [1]: 350%

CC(C)C[C@H](N)C(N)=O [L-leucine amide]
Rel. initial activity [1]: 100% | D-leucine ([5]; with EDTA (20 mM)): 0.003 m % | D-leucine amide ([5]; with EDTA (20 mM)): 0.021 m % | L-leucine ([5]; with EDTA (20 mM)): 0.058 m % | L-leucine amide ([5]; with EDTA (20 mM)): 0.15 m % | D-leucine ([5]; without EDTA): 0.001 m % | D-leucine amide ([5]; without EDTA): <0.001 m % | L-leucine ([5]; without EDTA): 0.21 m % | L-leucine amide ([5]; without EDTA): <0.001 m % | α-H-α-amino acid amide racemase activity [6]: no α-H-α-amino acid amide racemase activity was found

CC(C)C[C@H](N)C(=O)N[C@@H](C)C(=O)O [L-leucyl-L-alanine] (H-Leu-Ala-OH)
α-H-α-amino acid amide racemase activity [6]: no α-H-α-amino acid amide racemase activity was found

CC(C)C[C@H](N)C(=O)NCC(=O)O [L-leucyl-glycine] (H-Leu-Gly-OH)
α-H-α-amino acid amide racemase activity [6]: no α-H-α-amino acid amide racemase activity was found

NC(=O)[C@@H](N)Cc1ccccc1 [L-phenylalanineamide]
Rel. initial activity [1]: 4.5%

NC(=O)[C@@H](N)CO [L-serine amide]
Rel. initial activity [2]: 83%

NC(=O)[C@@H](N)Cc1c[nH]c2ccccc12 [L-tryptophan amide]
α-H-α-amino acid amide racemase activity [6]: no α-H-α-amino acid amide racemase activity was found

CC(C)[C@H](N)C(N)=O [L-valine amide]
Rel. initial activity [1]: 4.5%

CC(C)[C@H](N)C(=O)N[C@@H](C)C(=O)O [L-valyl-L-alanine] (H-Val-Ala-OH)
α-H-α-amino acid amide racemase activity [6]: no α-H-α-amino acid amide racemase activity was found

CC(C)[C@H](N)C(=O)NCC(=O)O [L-valyl-glycine] (H-Val-Gly-OH)
α-H-α-amino acid amide racemase activity [6]: no α-H-α-amino acid amide racemase activity was found

CC[C@H](C)[C@H](N)C(N)=O [LL-isoleucine amide]
Rel. initial activity [1]: 4.5%

C[C@H](O)[C@H](N)C(N)=O [LL-threonine amide]
Rel. initial activity [1]: 100%
